Assay results as given in paper PMC11133429, “Regiodivergent biosynthesis of bridged bicyclononanes” (Nature Communications, 2024).

Legend:
HsCPTb = tested on: T1, HsCPTb; assay: HPLC prenyltransferase assay, yeast microsomes; type: biochemical, Hypericum sampsonii; details: optimum conditions, Mg2+, pH optimum 10
T1 construct: cDNA in pESC-URA (GAL1), S. cerevisiae INVSc1 microsomal fraction; no tag mentioned

HsCPTa = tested on: T2, HsCPTa; assay: HPLC prenyltransferase assay, yeast microsomes; type: biochemical, Hypericum sampsonii; details: optimum conditions, Mg2+, pH optimum 7
T2 construct: cDNA in pESC-URA (GAL1), S. cerevisiae INVSc1 microsomal fraction; no tag mentioned

Row | SMILES | Km (HsCPTb; prenyl donor, acceptor grandone (only one accepted)) [µM] | Km (HsCPTa; prenyl donor, acceptor not given) [µM] | Km (HsCPTa; DMAPP saturation) [µM] | Km (HsCPTb; DMAPP saturation) [µM]
1 | CC(C)=CCOP(=O)(O)OP(=O)(O)O [DMAPP] | 298 ± 29.5 | 65.4 ± 6.63 | – | –
2 | CC(C)=CCC1=C(O)C(CC=C(C)C)(CC=C(C)C)C(=O)C(C(=O)C(C)C)=C1O [colupulone] | – | – | 106 ± 9.86 | –
3 | CC(C)=CCC1=C(O)C(CC=C(C)C)(CC=C(C)C)C(=O)C(C(=O)c2ccccc2)=C1O [compound 1, grandone] | – | – | 62 ± 10.1 | 40.4 ± 5.06
4 | CC(C)=CCC/C(C)=C/C[C@]1(CC=C(C)C)C(=O)C(CC=C(C)C)=C(O)/C(=C(\O)c2ccccc2)C1=O [compound 2, kolanone] | – | – | 114 ± 20 | –
